“And” between values parts separate entries of the source, which are not always exact repeats. Equal entries are not always repeated.
Columns and labels:
Sprague-Dawley rats [1] = test: Clinical chemistry (AST, ALT, CK) in blood plasma of toxicant-treated rats; format: in vivo, rat; conditions: individual male rats
Experimental: (§1) To follow up on the initial results shown in Example 2, blood samples from 44 individual rats that had been treated with varying doses of CBrCl3, CCl4 (another liver toxicant), or TMPD were evaluated using qPCR of miR-122 and miR-133. In addition, data from histopathology and a panel of standard biomarkers (ALT, AST, CK, skTnI, etc.) were also available for these same individual rats and were used to compare the results from microRNA assays with the standard histopathology and protein biomarkers.
(§2) Animals Male and female Sprague-Dawley rats were obtained from Charles River Laboratories, Inc. (Raleigh, N.C.). The rats were approximately seven to eight weeks of age and weighed from 125 to 325 grams at the start of the study. The animals were acclimated for approximately one week and randomized into treatment and control groups. During the toxicity studies targeting liver, the animals were maintained on a caloric-restricted diet, and fasted overnight prior to necropsy. Doses were different for each model compound tested and were calculated based on animal body weight. For the compounds, routes of administration, dose groups, and time points, see the below compound section.
(§3) Skeletal Muscle Toxicant • 2,3,5,6-tetramethyl-p phenylenediamine (TMPD) • Doses: 2, 4 mg/kg bid • Dosing: 0.9% NaCl by subcutaneous injection • Animals: Sprague Dawley Male Rats • Time Points: TMPD Plasma (Day 2) and Controls (5 samples per group, […] pooled=500 μl total).
(§4) Liver Toxicant • Trichlorobromomethane (CCl3Br) • Doses: 0.03, 0.1 ml/kg • Dosing: 100% liquid paraffin by oral gavage • Animals: Sprague Dawley Male Rats • Time Point: CCl3Br Plasma (Days 2 & 4) and Controls (4 controls, 3 samples per group, 100 μl each) • Carbon Tetrachloride (CCl4) • Doses: 0.03, 0.1, 0.3 ml/kg • Dosing: 100% liquid paraffin by oral gavage • Animals: Sprague Dawley Male Rats • Time Point: CCl4 Plasma (Days 2) and Controls (4 samples per group, 100 μl each)

Sprague-Dawley rats [2] = test: Individual sample study: miR-133 in blood plasma of toxicant-treated rats by qPCR; format: in vivo, rat; conditions: individual male rats
Experimental: as §1, §2, §3, §4
(§5) Plasma Samples All plasma samples were collected in EDTA tubes at final necropsy from the vena cava. Samples were inverted several times, and centrifuged for 20 minutes at 2,900 RPM at 4° C. Plasma samples were removed and stored at −70° C. Pooled blood plasma samples from rat toxicology studies were analyzed using a qPCR-based assay (Raymond et al, 2005, RNA 11:1737; WO 2006/081282). Control slope and intercept values for miR-122 and miR-133 were calculated from a concentration series of each microRNA added to total yeast RNA and then analyzed using the qPCR assay for each miRNA. The slope and intercept values from the standard curve were used to calculate the amount of each respective miRNA in each sample expressed as the number of miRNA copies per 20 ng of total RNA in each sample. Cycle threshold values (Ct) for each sample were converted to miRNA copy numbers by comparison to standard curves generated using single stranded mature miRNAs and are expressed in Table 4 as copies/20 pg input RNA (approximately equivalent to copies/cell).

Sprague-Dawley rats [3] = test: Liver histopathology scores of toxicant-treated rats; format: in vivo, rat; parameters: key to Liver Histopathology Scores: Vacuolation / Liver Histopathology Scores: Necrosis / Liver Histopathology Scores: Degeneration / Liver Histopathology Scores: Inflammation / Liver Histopathology Scores: Mitotic Index: 1 = very slight; 2 = slight or small; 3 = moderate; 4 = marked; 5 = severe tissue injury
Experimental: as §1, §2, §4

Sprague-Dawley rats [4] = test: Individual sample study: miR-122 in blood plasma of toxicant-treated rats by qPCR; format: in vivo, rat; conditions: individual male rats
Experimental: as §1, §2, §3, §4, §5

Sprague-Dawley rats [5] = test: Pooled sample study: miR-133 in blood plasma of toxicant-treated rats by qPCR; format: in vivo; conditions: pooled rat plasma (5 samples), cerivastatin 1.0 mg/kg/day oral Day 14, CBrCl3 0.1 ml/kg oral Days 2 & 4, TMPD 6 mg/kg bid s.c. Day 3; for miR-133 Copies / miR-133 Ct Mean: 250 ng total RNA input
Experimental: (§6) To explore the feasibility of detecting miRNA tissue injury biomarkers in plasma, a pilot study was performed in which pooled blood plasma samples from rat toxicology studies were analyzed using a qPCR-based assay (Raymond et at, 2005, RNA 11:1737; WO 2006/081282). The miRNAs miR-122 and miR-133 were chosen for quantification because they are extremely abundant and specific to liver and muscle, respectively (FIG. 1). Stored plasma samples from rats that had previously been treated with a liver damaging agent trichlorobromomethane (CBrCl3) or with one of two muscle damaging agents 2,3,5,6-tetramethyl-p phenylenediamine (TMPD) or cerivastatin) were assayed form miRNA levels using qPCR.
as §2
(§7) Skeletal Muscle Toxicant • 2,3,5,6-tetramethyl-p phenylenediamine (TMPD) • Doses: 6 mg/kg bid • Dosing: 0.9% NaCl by subcutaneous injection • Animals: Sprague Dawley Male Rats • Time Points Day 3, TMPD Plasma (Day 3) and Controls (5 samples, 100 ul each pooled=500 ul total).
(§8) Liver Toxicant • Trichlorbromomethane (CCl3Br) • Doses: 0.1 ml/kg • Dosing: 100% liquid paraffin by oral gavage • Animals: Sprague Dawley Male Rats • Time Point: Day 2, 4 CCl3Br Plasma (Days 2 & 4) and Controls (5 samples, 100 ul each pooled=500 ul total)
(§9) Liver and Muscle Toxicant • Cerivastatin • Doses: 1.0 mg/kg/day • Dosing: 0.5% methylcellulose by oral gavage • Animals: Sprague Dawley Female Rats • Time Point Day 14 Cerivastatin Plasma (Day 14) and Controls (5 samples, 100 ul each pooled=500 μl total)
as §5, with “expressed” for “expressed in Table 4”

Sprague-Dawley rats [6] = test: Pooled sample study: miR-122 in blood plasma of toxicant-treated rats by qPCR; format: in vivo; conditions: pooled rat plasma (5 samples), cerivastatin 1.0 mg/kg/day oral Day 14, CBrCl3 0.1 ml/kg oral Days 2 & 4, TMPD 6 mg/kg bid s.c. Day 3; for miR-122 Copies / miR-122 Ct Mean: 250 ng total RNA input
Experimental: as §6, §2, §7, §8, §9
as §5, with “expressed” for “expressed in Table 4”

[7] = CCl4 0.03 ml/kg oral gavage, Day 2, plasma
[8] = CCl4 0.1 mL/kg oral gavage, Day 2, plasma
[9] = CCl4 0.3 mL/kg oral gavage, Day 2, plasma
[10] = CCl4 0.03 ml/kg oral gavage, Day 2, individual male rats
[11] = CCl4 0.1 mL/kg oral gavage, Day 2, individual male rats
[12] = CCl4 0.3 mL/kg oral gavage, Day 2, individual male rats
[13] = CBrCl3 0.03 mL/kg oral gavage, Day 2, plasma
[14] = CBrCl3 0.03 mL/kg oral gavage, Day 4, plasma
[15] = CBrCl3 0.1 mL/kg oral gavage, Day 4, plasma
[16] = CBrCl3 0.03 mL/kg oral gavage, Day 2, individual male rats
[17] = CBrCl3 0.03 mL/kg oral gavage, Day 4, individual male rats
[18] = CBrCl3 0.1 mL/kg oral gavage, Day 4, individual male rats

ClC(Cl)(Cl)Cl [CCl4, Carbon Tetrachloride]
ALT (Sprague-Dawley rats [1]; [7]): 25 Unit (3×) and 20 Unit
AST (Sprague-Dawley rats [1]; [7]): 92 Unit and 88 Unit and 76 Unit and 84 Unit
ALT (Sprague-Dawley rats [1]; [8]): 25 Unit and 40 Unit (2×) and 41 Unit
AST (Sprague-Dawley rats [1]; [8]): 96 Unit and 116 Unit and 102 Unit and 126 Unit
ALT (Sprague-Dawley rats [1]; [9]): 87 Unit and 77 Unit and 62 Unit and 56 Unit
AST (Sprague-Dawley rats [1]; [9]): 345 Unit and 216 Unit and 157 Unit and 225 Unit
miR-133 (Sprague-Dawley rats [2]; [7]): 0.3 copies/20 pg input RNA (2×) and 0.5 copies/20 pg input RNA and 1.0 copies/20 pg input RNA
miR-133 (Sprague-Dawley rats [2]; [8]): 0.3 copies/20 pg input RNA (2×) and 0.4 copies/20 pg input RNA (2×)
miR-133 (Sprague-Dawley rats [2]; [9]): 1.4 copies/20 pg input RNA and 0.4 copies/20 pg input RNA and 0.3 copies/20 pg input RNA and 0.1 copies/20 pg input RNA
Liver Histopathology Scores: Degeneration (Sprague-Dawley rats [3]; [10]): 0
Liver Histopathology Scores: Inflammation (Sprague-Dawley rats [3]; [10]): 0
Liver Histopathology Scores: Necrosis (Sprague-Dawley rats [3]; [10]): 0
Liver Histopathology Scores: Vacuolation (Sprague-Dawley rats [3]; [10]): 0
Liver Histopathology Scores: Degeneration (Sprague-Dawley rats [3]; [11]): 0 (2×) and 1 (2×)
Liver Histopathology Scores: Inflammation (Sprague-Dawley rats [3]; [11]): 0 (2×) and 2 and 1
Liver Histopathology Scores: Necrosis (Sprague-Dawley rats [3]; [11]): 0 (2×) and 1 (2×)
Liver Histopathology Scores: Vacuolation (Sprague-Dawley rats [3]; [11]): 0 and 1 (3×)
Liver Histopathology Scores: Degeneration (Sprague-Dawley rats [3]; [12]): 2
Liver Histopathology Scores: Inflammation (Sprague-Dawley rats [3]; [12]): 2 (3×) and 1
Liver Histopathology Scores: Necrosis (Sprague-Dawley rats [3]; [12]): 1
Liver Histopathology Scores: Vacuolation (Sprague-Dawley rats [3]; [12]): 0
miR-122 (Sprague-Dawley rats [4]; [7]): 2.4 copies/20 pg input RNA and 5.5 copies/20 pg input RNA and 8.7 copies/20 pg input RNA and 10.0 copies/20 pg input RNA
miR-122 (Sprague-Dawley rats [4]; [8]): 7.9 copies/20 pg input RNA and 107.4 copies/20 pg input RNA and 14.3 copies/20 pg input RNA and 119.4 copies/20 pg input RNA
miR-122 (Sprague-Dawley rats [4]; [9]): 1563.6 copies/20 pg input RNA and 194.3 copies/20 pg input RNA and 191.4 copies/20 pg input RNA and 164.6 copies/20 pg input RNA

COCc1c(C(C)C)nc(C(C)C)c(/C=C/[C@@H](O)C[C@@H](O)CC(=O)O)c1-c1ccc(F)cc1 [Cerivastatin]
miR-133 Copies (Sprague-Dawley rats [5]): 7279643
miR-133 Ct Mean (Sprague-Dawley rats [5]): 23.1065
miR-133 Copies/20 pg (Sprague-Dawley rats [5]): 582.4 Copies/20 pg
miR-122 Copies (Sprague-Dawley rats [6]): 353217
miR-122 Ct Mean (Sprague-Dawley rats [6]): 24.2231
miR-122 Copies/20 pg (Sprague-Dawley rats [6]): 28.3 Copies/20 pg

ClC(Cl)(Cl)Br [CBrCl3, trichlorobromomethane]
miR-133 Copies (Sprague-Dawley rats [5]): 85617.9
miR-133 Ct Mean (Sprague-Dawley rats [5]): 29.6296
miR-133 Copies/20 pg (Sprague-Dawley rats [5]): 6.8 Copies/20 pg
miR-122 Copies (Sprague-Dawley rats [6]): 8.8E+08
miR-122 Ct Mean (Sprague-Dawley rats [6]): 12.6961
miR-122 Copies/20 pg (Sprague-Dawley rats [6]): 70674.9 Copies/20 pg
ALT (Sprague-Dawley rats [1]; [13]): 142 Unit and 36 Unit (2×)
AST (Sprague-Dawley rats [1]; [13]): 366 Unit and 83 Unit and 93 Unit
ALT (Sprague-Dawley rats [1]; [14]): 34 Unit and 43 Unit and 32 Unit
AST (Sprague-Dawley rats [1]; [14]): 138 Unit and 118 Unit and 108 Unit
ALT (Sprague-Dawley rats [1]; [15]): 1388 Unit and 191 Unit and 223 Unit
AST (Sprague-Dawley rats [1]; [15]): 1543 Unit and 370 Unit and 519 Unit
miR-133 (Sprague-Dawley rats [2]; [13]): 0.7 copies/20 pg input RNA and 0.2 copies/20 pg input RNA and 0.4 copies/20 pg input RNA
miR-133 (Sprague-Dawley rats [2]; [14]): 1.2 copies/20 pg input RNA and 2.0 copies/20 pg input RNA and 0.3 copies/20 pg input RNA
miR-133 (Sprague-Dawley rats [2]; [15]): 0.8 copies/20 pg input RNA and 0.4 copies/20 pg input RNA (2×)
Liver Histopathology Scores: Degeneration (Sprague-Dawley rats [3]; [16]): 2 and 0 and 1
Liver Histopathology Scores: Inflammation (Sprague-Dawley rats [3]; [16]): 1 (2×) and 0
Liver Histopathology Scores: Mitotic Index (Sprague-Dawley rats [3]; [16]): 0
Liver Histopathology Scores: Necrosis (Sprague-Dawley rats [3]; [16]): 1 and 0 (2×)
Liver Histopathology Scores: Degeneration (Sprague-Dawley rats [3]; [17]): 0 and 1 (2×)
Liver Histopathology Scores: Inflammation (Sprague-Dawley rats [3]; [17]): 0
Liver Histopathology Scores: Mitotic Index (Sprague-Dawley rats [3]; [17]): 0
Liver Histopathology Scores: Necrosis (Sprague-Dawley rats [3]; [17]): 0
Liver Histopathology Scores: Degeneration (Sprague-Dawley rats [3]; [18]): 2 and 1 (2×)
Liver Histopathology Scores: Inflammation (Sprague-Dawley rats [3]; [18]): 2
Liver Histopathology Scores: Mitotic Index (Sprague-Dawley rats [3]; [18]): 1 (2×) and 2
Liver Histopathology Scores: Necrosis (Sprague-Dawley rats [3]; [18]): 3 and 1 (2×)
miR-122 (Sprague-Dawley rats [4]; [13]): 860.8 copies/20 pg input RNA and 45.1 copies/20 pg input RNA and 47.3 copies/20 pg input RNA
miR-122 (Sprague-Dawley rats [4]; [14]): 90.2 copies/20 pg input RNA and 56.2 copies/20 pg input RNA and 20.5 copies/20 pg input RNA
miR-122 (Sprague-Dawley rats [4]; [15]): 4049.2 copies/20 pg input RNA and 335.5 copies/20 pg input RNA and 304.0 copies/20 pg input RNA

— patent publication US20110111976A1, “MICRORNA BIOMARKERS OF TISSUE INJURY” (priority 2008, published 2011)
